The values below are quoted from earlier work in US20070281007A1, “Mucoadhesive Oral Formulations of High Permeability, High Solubility Drugs” (priority 2004, published 2007).

Each structure is given as a SMILES string. Where two headings read alike, the source gives them in different places.

For orientation: bioavailability means dose-corrected exposure relative to a reference, in per cent. For the molecule `NCC1(CC(=O)O)CCCCC1` [gabapentin], the bioavailability (at best, 900 mg dose, given three times a day) is listed as 60%. In the case of `CC(C)[C@H](N)C(=O)OCCOCn1cnc2c(=O)[nH]c(N)nc21` [valacyclovir], the bioavailability (in vivo) is approximately 50%.
